{
  "source": "paper PMC3433420",
  "about": "(PLoS ONE, 2012)",
  "test_in_all_cases": "In-house protein microarrays (with or without 5 mM DTT), protein named per line",
  "type_in_all_cases": "binding",
  "key": {"[1]": {"molecular_target": "T1, SH2 and PTB domains (Homo sapiens, UniProt P08631)", "T1 construct": "thioredoxin; made in house; host or cells: BL21(DE3)pLysS E. coli", "T1 sequence (P08631 whole entry, the tested form may be a part)": "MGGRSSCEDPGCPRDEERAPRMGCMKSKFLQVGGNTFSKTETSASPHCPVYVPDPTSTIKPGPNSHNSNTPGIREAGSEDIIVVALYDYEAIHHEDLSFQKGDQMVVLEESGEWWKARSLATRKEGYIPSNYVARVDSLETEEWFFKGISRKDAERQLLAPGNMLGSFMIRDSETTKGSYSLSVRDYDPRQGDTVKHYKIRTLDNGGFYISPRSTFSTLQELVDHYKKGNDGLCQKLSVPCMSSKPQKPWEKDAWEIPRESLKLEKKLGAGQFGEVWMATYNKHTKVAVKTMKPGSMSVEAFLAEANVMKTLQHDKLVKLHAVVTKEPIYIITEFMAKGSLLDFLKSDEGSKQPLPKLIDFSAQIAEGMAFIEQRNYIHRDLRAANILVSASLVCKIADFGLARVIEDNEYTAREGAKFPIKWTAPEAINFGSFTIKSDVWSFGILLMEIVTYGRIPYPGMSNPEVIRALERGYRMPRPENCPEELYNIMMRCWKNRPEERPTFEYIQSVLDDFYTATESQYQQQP", "settings": "protein HCK", "method_in_brief": "(§1)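 Recombinant domains (~40 µM) spotted in duplicate on aldehyde slides, quenched 1 h at room temperature in HEPES/KCl/Tween-20 buffer pH 7.8 with 5 mM DTT and 1% BSA, then probed with rhodamine-labeled peptide. Thioredoxin-subtracted mean fluorescence fitted for KD.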"}, "[2]": {"molecular_target": "T2, SH2 and PTB domains (Homo sapiens, UniProt P43403)", "T2 construct": "thioredoxin; made in house; host or cells: BL21(DE3)pLysS E. coli", "T2 sequence (P43403 1-619)": "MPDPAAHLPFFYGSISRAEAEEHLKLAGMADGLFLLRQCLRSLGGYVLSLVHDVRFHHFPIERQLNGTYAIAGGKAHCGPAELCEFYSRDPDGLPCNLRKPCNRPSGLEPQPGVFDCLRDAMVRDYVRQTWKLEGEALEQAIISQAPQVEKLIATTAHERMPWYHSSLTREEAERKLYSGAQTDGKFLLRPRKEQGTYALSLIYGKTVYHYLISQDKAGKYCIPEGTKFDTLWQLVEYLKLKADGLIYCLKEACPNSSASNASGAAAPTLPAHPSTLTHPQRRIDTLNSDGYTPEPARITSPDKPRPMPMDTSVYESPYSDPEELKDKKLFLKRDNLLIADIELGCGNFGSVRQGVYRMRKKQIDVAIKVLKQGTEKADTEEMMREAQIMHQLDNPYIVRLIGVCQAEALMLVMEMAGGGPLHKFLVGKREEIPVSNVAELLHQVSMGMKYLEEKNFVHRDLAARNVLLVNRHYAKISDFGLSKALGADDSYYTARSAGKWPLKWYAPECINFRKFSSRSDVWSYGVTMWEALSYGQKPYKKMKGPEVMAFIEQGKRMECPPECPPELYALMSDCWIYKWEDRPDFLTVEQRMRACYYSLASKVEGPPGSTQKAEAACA", "method_in_brief": "as §1"}, "[3]": {"molecular_target": "T3, SH2 and PTB domains (Homo sapiens, UniProt P51813)", "T3 construct": "thioredoxin; made in house; host or cells: BL21(DE3)pLysS E. coli", "T3 sequence (P51813 1-675)": "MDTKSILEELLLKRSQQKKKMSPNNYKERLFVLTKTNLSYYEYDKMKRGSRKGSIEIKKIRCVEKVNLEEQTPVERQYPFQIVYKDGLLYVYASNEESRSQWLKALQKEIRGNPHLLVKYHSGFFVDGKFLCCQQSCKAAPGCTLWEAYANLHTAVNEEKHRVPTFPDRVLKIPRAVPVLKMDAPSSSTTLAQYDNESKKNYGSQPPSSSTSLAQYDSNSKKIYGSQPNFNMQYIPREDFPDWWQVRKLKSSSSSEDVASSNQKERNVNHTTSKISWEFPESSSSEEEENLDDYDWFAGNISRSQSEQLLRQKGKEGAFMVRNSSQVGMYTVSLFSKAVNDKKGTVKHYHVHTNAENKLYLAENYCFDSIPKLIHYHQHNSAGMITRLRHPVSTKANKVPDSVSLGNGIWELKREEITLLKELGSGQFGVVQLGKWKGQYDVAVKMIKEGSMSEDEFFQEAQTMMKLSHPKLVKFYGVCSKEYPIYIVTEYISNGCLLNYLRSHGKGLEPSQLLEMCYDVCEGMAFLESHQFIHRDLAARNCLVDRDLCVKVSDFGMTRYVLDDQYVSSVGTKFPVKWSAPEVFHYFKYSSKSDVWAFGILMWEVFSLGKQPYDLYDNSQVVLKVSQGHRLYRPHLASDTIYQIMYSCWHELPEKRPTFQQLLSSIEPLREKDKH", "settings": "protein BMX", "method_in_brief": "as §1"}, "[4]": {"molecular_target": "T4, SH2 and PTB domains (Homo sapiens, UniProt Q08881)", "T4 construct": "thioredoxin; made in house; host or cells: BL21(DE3)pLysS E. coli", "T4 sequence (Q08881 1-620)": "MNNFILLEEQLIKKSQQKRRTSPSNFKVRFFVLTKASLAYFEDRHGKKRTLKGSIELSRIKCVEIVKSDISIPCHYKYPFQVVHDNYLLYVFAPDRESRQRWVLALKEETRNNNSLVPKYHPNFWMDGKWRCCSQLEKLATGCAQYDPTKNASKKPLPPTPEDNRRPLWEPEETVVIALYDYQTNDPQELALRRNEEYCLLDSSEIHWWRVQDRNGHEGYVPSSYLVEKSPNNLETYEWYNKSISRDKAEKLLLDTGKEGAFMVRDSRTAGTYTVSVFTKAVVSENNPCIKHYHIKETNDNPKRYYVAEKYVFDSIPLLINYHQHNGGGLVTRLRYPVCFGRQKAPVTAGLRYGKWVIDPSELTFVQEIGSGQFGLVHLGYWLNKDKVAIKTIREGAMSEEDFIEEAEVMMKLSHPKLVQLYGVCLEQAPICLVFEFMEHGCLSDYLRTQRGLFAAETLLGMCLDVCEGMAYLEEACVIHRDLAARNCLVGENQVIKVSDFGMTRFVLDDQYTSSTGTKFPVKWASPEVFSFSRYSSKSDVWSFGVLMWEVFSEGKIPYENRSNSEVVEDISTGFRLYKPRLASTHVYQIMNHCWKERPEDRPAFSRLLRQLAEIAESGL", "settings": "protein ITK", "method_in_brief": "as §1"}, "[5]": {"settings": "PM assay replicate # 39336, array fabrication # 39329"}, "[6]": {"settings": "PM assay replicate # 39337, array fabrication # 39329"}, "[7]": {"settings": "PM assay replicate # 39307, array fabrication # 39286"}},
  "note": "Residues, ends and D or L forms follow the SMILES beside them.",
  "data": [
    {"molecule": "CC(C)C[C@H](NC(=O)[C@@H]1CCCN1C(=O)[C@H](C)NC(=O)[C@@H](NC(=O)[C@H](Cc1ccc(OP(=O)(O)O)cc1)NC(=O)CNC(=O)[C@H](CC(=O)O)NC(=O)[C@@H](NC(=O)[C@@H](N)CCC(=O)O)[C@@H](C)O)C(C)C)C(=O)N[C@H](C(=O)N[C@@H](CS)C(=O)N[C@@H](CO)C(=O)N[C@@H](CC(=O)O)C(=O)O)[C@@H](C)O", "note": "[ErbB2 pY1127]", "values": [
      {"measurement": "Kd", "setting": "[1]; [5]", "value": 4.36, "unit": "µM"},
      {"measurement": "Kd", "setting": "[1]; [6]", "value": 0.25, "unit": "µM"},
      {"measurement": "Kd", "setting": "[2]; protein ZAP70-NC, PM assay replicate # 39336, array fabrication # 39329", "value": 2.41, "unit": "µM"},
      {"measurement": "Kd", "setting": "[2]; protein ZAP70-NC, PM assay replicate # 39337, array fabrication # 39329", "value": 2.01, "unit": "µM"},
      {"measurement": "Kd", "setting": "[3]; [5]", "value": 1.60, "unit": "µM"},
      {"measurement": "Kd", "setting": "[3]; [6]", "value": 5.39, "unit": "µM"},
      {"measurement": "Kd", "setting": "[4]; [5]", "value": 0.80, "unit": "µM"},
      {"measurement": "Kd", "setting": "[4]; [6]", "value": 2.58, "unit": "µM"}
    ]},
    {"molecule": "CCN(CC)c1ccc2c(-c3ccc(C(=O)N[C@@H](CC(N)=O)C(=O)NCC(=O)N4CCC[C@H]4C(=O)N4CCC[C@H]4C(=O)N[C@@H](CCCCN)C(=O)N[C@@H](C)C(=O)N[C@@H](CCC(=O)O)C(=O)N[C@@H](CC(=O)O)C(=O)N[C@@H](CCC(=O)O)C(=O)N[C@@H](Cc4ccc(OP(=O)(O)O)cc4)C(=O)N[C@H](C(=O)N[C@@H](CC(N)=O)C(=O)N[C@@H](CCC(=O)O)C(=O)N4CCC[C@H]4C(=O)N[C@@H](CC(C)C)C(=O)N[C@@H](Cc4ccc(O)cc4)C(=O)N[C@@H](CC(C)C)C(=O)N[C@@H](CC(=O)O)C(=O)O)C(C)C)cc3C(=O)[O-])c3ccc(=[N+](CC)CC)cc-3oc2c1", "note": "[ErbB4 1202 (18-mer)] (HELM PEPTIDE1{[CCN(CC)c1ccc2c(-c3ccc(C(=O)[*:2])cc3C(=O)[O-])c3ccc(=[N+](CC)CC)cc-3oc2c1].N.G.P.P.K.A.E.D.E.[O=C([C@H](Cc1ccc(OP(=O)(O)O)cc1)N[*:1])[*:2]].V.N.E.P.L.Y.L.D}$$$$V2.0)", "values": [
      {"measurement": "Kd", "setting": "[4]; [7]", "value": 0.72, "unit": "µM"}
    ]},
    {"molecule": "CC[C@H](C)[C@H](NC(=O)[C@H](CC(N)=O)NC(=O)[C@H](CC(N)=O)NC(=O)[C@H](CCCCN)NC(=O)[C@H](CC(C)C)NC(=O)[C@H](Cc1ccc(OP(=O)(O)O)cc1)NC(=O)[C@H](CCC(=O)O)NC(=O)[C@H](C)NC(=O)[C@H](CCCCN)NC(=O)CNC(=O)[C@H](CC(C)C)NC(=O)[C@@H](NC(=O)[C@H](CC(N)=O)NC(=O)[C@H](C)NC(=O)[C@@H](N)Cc1ccccc1)[C@@H](C)O)C(=O)N[C@@H](CC(C)C)C(=O)N[C@@H](CO)C(=O)N[C@@H](CC(=O)O)C(=O)O", "note": "[ErbB4 pY1221 (18-mer)] (HELM PEPTIDE1{F.A.N.T.L.G.K.A.E.[O=C([C@H](Cc1ccc(OP(=O)(O)O)cc1)N[*:1])[*:2]].L.K.N.N.I.L.S.D}$$$$V2.0)", "values": [
      {"measurement": "Kd", "setting": "[1]; [7]", "value": 0.07, "unit": "µM"},
      {"measurement": "Kd", "setting": "[2]; protein ZAP70-C, PM assay replicate # 39352, array fabrication # 39336", "value": 0.79, "unit": "µM"},
      {"measurement": "Kd", "setting": "[3]; [7]", "value": 0.42, "unit": "µM"}
    ]}
  ]
}
